# Test results taken from patent US20250296953A1, “3,4-THIAZOLO-STEROIDS AND METHODS OF MAKING AND USING THE SAME” (Arkansas State University - Jonesboro, priority 2018, published 2025).
# What was measured:
# SR = experiment: NCI 60 five dose screen; details: Homo sapiens, SR
# SK-MEL-25 = experiment: Melanoma cytotoxicity assay (resazurin); assay type: cell-based; details: SK-MEL-25 melanoma cells, 24 hours with compound, resazurin; concentration not given
# Summary of the method: (§1)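 ~4000 cells/well seeded 24 h, then compound added in triplicate for 24 h at 37° C, 5% CO2. Resazurin added for 6 h; fluorescence at 544/590 nm, background-subtracted and normalised to DMSO wells as % viability; IC50 from sigmoidal fit of serial dilutions.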
# SK-MEL-28 = experiment: Melanoma cytotoxicity assay (resazurin); assay type: cell-based; details: SK-MEL-28 melanoma cells, 24 hours with compound, resazurin; concentration not given
# Summary of the method: as §1
# [1] = test system: 60 different human tumor cell lines; experiment: NCI Development Therapeutics Program 60 cell line screen, one dose; assay type: cell-based
# HCT-15 (Colon Cancer) = experiment: NCI 60 one dose screen; assay type: cell-based, human
# RPMI-8226 = experiment: NCI 60 five dose screen; details: Homo sapiens
structure (smiles),measurement,setting,value
"C[C@]12CCc3sc(Nc4ccc(F)cc4F)nc3C1=CC[C@@H]1[C@@H]2CC[C@]2(C)C(=O)CC[C@@H]12 [IIa.10, (1S,2R,13R,14S,18S)-7-(2,4-difluoroanilino)-2,18-dimethyl-6-thia-8-azapentacyclo[11.7.0.02,10.05,9.014,18]icosa-5(9),7,10-trien-17-one]",GI50,SR,2900 nM
same,CC50,SR; read-out: LC50,> 100000 nM
same,SK-MEL-25 (% inhibition),SK-MEL-25,34%
same,SK-MEL-28 (% inhibition),SK-MEL-28,14%
same,Growth Percent,"[1]; Breast Cancer, BT-549",59.58%
same,Growth Percent,"[1]; Breast Cancer, HS 578T",55.28%
same,Growth Percent,"[1]; Breast Cancer, MCF7",14.62%
same,Growth Percent,"[1]; Breast Cancer, MDA-MB-231/ATCC",76.10%
same,Growth Percent,"[1]; Breast Cancer, MDA-MB-468",23.25%
same,Growth Percent,"[1]; Breast Cancer, T-47D",48.94%
same,Growth Percent,"[1]; CNS Cancer, SF-268",70.67%
same,Growth Percent,"[1]; CNS Cancer, SNB-19",74.13%
same,Growth Percent,"[1]; CNS Cancer, SNB-75",69.43%
same,Growth Percent,"[1]; CNS Cancer, U251",40.73%
same,Growth Percent,"[1]; Colon Cancer, COLO 205",54.33%
same,Growth Percent,"[1]; Colon Cancer, HCC-2998",71.64%
same,Growth Percent,"[1]; Colon Cancer, HCT-116",−23.35%
same,Growth Percent,"[1]; Colon Cancer, HT29",30.06%
same,Growth Percent,"[1]; Colon Cancer, KM12",57.14%
same,Growth Percent,"[1]; Colon Cancer, SW-620",7.16%
same,Growth Percent,"[1]; Leukemia, CCRF-CEM",10.07%
same,Growth Percent,"[1]; Leukemia, HL-60(TB)",21.35%
same,Growth Percent,"[1]; Leukemia, K-562",2.15%
same,Growth Percent,"[1]; Leukemia, MOLT-4",3.63%
same,Growth Percent,"[1]; Leukemia, RPMI-8226",−20.85%
same,Growth Percent,"[1]; Leukemia, SR",.71%
same,Growth Percent,"[1]; Melanoma, LOX IMVI",−49.65%
same,Growth Percent,"[1]; Melanoma, M14",57.76%
same,Growth Percent,"[1]; Melanoma, MALME-3M",69.51%
same,Growth Percent,"[1]; Melanoma, MDA-MB-435",51.52%
same,Growth Percent,"[1]; Melanoma, SK-MEL-2",76.42%
same,Growth Percent,"[1]; Melanoma, SK-MEL-5",76.86%
same,Growth Percent,"[1]; Melanoma, SK-MEL-28",84.36%
same,Growth Percent,"[1]; Melanoma, UACC-62",67.65%
same,Growth Percent,"[1]; Melanoma, UACC-257",71.94%
same,Growth Percent,"[1]; Non-small Cell Lung Cancer, A549/ATCC",61.70%
same,Growth Percent,"[1]; Non-small Cell Lung Cancer, EKVX",78.36%
same,Growth Percent,"[1]; Non-small Cell Lung Cancer, HOP-62",87.08%
same,Growth Percent,"[1]; Non-small Cell Lung Cancer, HOP-92",77.08%
same,Growth Percent,"[1]; Non-small Cell Lung Cancer, NCI-H23",66.21%
same,Growth Percent,"[1]; Non-small Cell Lung Cancer, NCI-H226",84.23%
same,Growth Percent,"[1]; Non-small Cell Lung Cancer, NCI-H322M",84.48%
same,Growth Percent,"[1]; Non-small Cell Lung Cancer, NCI-H460",60.86%
same,Growth Percent,"[1]; Ovarian Cancer, IGROV1",62.11%
same,Growth Percent,"[1]; Ovarian Cancer, NCI/ADR-RES",67.57%
same,Growth Percent,"[1]; Ovarian Cancer, OVCAR-3",−4.15%
same,Growth Percent,"[1]; Ovarian Cancer, OVCAR-4",66.68%
same,Growth Percent,"[1]; Ovarian Cancer, OVCAR-5",91.77%
same,Growth Percent,"[1]; Ovarian Cancer, OVCAR-8",45.20%
same,Growth Percent,"[1]; Ovarian Cancer, SK-OV-3",84.10%
same,Growth Percent,"[1]; Prostate Cancer, DU-145",24.05%
same,Growth Percent,"[1]; Prostate Cancer, PC-3",52.88%
same,Growth Percent,"[1]; Renal Cancer, 786-0",−27.72%
same,Growth Percent,"[1]; Renal Cancer, A498",77.80%
same,Growth Percent,"[1]; Renal Cancer, ACHN",37.67%
same,Growth Percent,"[1]; Renal Cancer, CAKI-1",38.44%
same,Growth Percent,"[1]; Renal Cancer, RXF 393",5.60%
same,Growth Percent,"[1]; Renal Cancer, SN12C",64.13%
same,Growth Percent,"[1]; Renal Cancer, TK-10",50.24%
same,Growth Percent,"[1]; Renal Cancer, UO-31",42.87%
same,Growth Percent,HCT-15 (Colon Cancer),7.76%
same,GI50,RPMI-8226; RPMI-8226,1880 nM
same,CC50,"RPMI-8226; RPMI-8226, read-out: LC50",> 100000 nM
